Source: patent US20260035670A1, “IN VITRO CONSTRUCT USEFUL FOR DRUG TOXICITY SCREENING” (Wake Forest University Health Sciences, priority 2022, published 2026)

Tests used:
[1] = tested on: USC in 3D silk fiber matrix (3D USC-SFM); experiment: mtDNA content (q-PCR) and mitochondrial mass of USC in 3D USC-SFM treated with ddC; format: cell-based, human
Experimental: (§1) To determine the dose effect of ddC on cell viability, mitochondrial function and oxidative stress of USC in both 3D cultures, ddC was added to spheroids and USC-SFM at different doses: […] 2 days, 3 replicates per concentration. To evaluate the time-dependent effect of ddC on USC in 3D cultures, spheroids and USC-SFM samples were assayed 2-6 weeks after administering ddC, 3 replicates per time point. DMSO (0.1%) was used as a control.
(§2) To measure the levels of cell senescence genes ([…], 21 and Rb) (Kang et al. Science 349 (2015) aaa5612) and mitochondrial DNA (mtDNA) content, mRNA expression of spheroid (n ¼ 3) and 3D USC-SFM (n ¼ 3) samples were assessed using BioRad CFX connect Real-time PCR Detection System (Rooney et al. Methods Mol. Biol. 1241 (2015) 23e38). Genomic DNA was extracted from the cells using a DNeasy Blood & Tissue Kit (Qiagen, Valencia, Cat. No 69504) according to the manufacturer's protocol. The Q-PCR recipe was a mix with SYBR Green SuperMix (ThermoFisher, USA, Cat. No 4367659) using both the mitochondrial and the nuclear primers, and this temperature cycling was used: initial denaturing at 50° C. for 2 min, 95° C. for 15 min, followed by 40 cycles of denaturing at 95° C. for 30 s, annealing at 60° C. for 1 s and extension at 95° C. for 15 s, 60° C. for 1 min, annealing at 95° C. for 15 s, 60° C. for 1 min and dissociating at 95° C. for 15 s.

[2] = tested on: oxidative phosphorylation complexes I-V in USC of 3D spheroids; experiment: Oxidative phosphorylation complexes I-V in 3D USC spheroids after ddC (Western blot); format: cell-based, human
Experimental: (§3) To determine the dose effect of ddC on cell viability, mitochondrial function and oxidative stress of USC in both 3D cultures, ddC was added to spheroids and USC-SFM at different doses: 0.2, 2 and 10 μM in the culture medium every 2 days, 3 replicates per concentration. To evaluate the time-dependent effect of ddC on USC in 3D cultures, spheroids and USC-SFM samples were assayed 2-6 weeks after administering ddC, 3 replicates per time point. DMSO (0.1%) was used as a control.
(§4) To generate sufficient cell numbers for immunoblot analysis, USC (5×10^5 cells) within spheroids and 1-SFM were loaded in 81-well molds made by Micro-Tissues 3D Petri Dish (Sigma, USA). USC in 2D culture were seeded onto a 6-well plate at a density of 5×10^5 cells/well as control. After a wash of the cell samples with PBS, the USC were harvested and incubated for 30 min in the presence of […] of lysis buffer (Pierce, Rockford, IL) with 1% protease/phosphatase inhibitor cocktail (Cell Signaling Technology, Danvers, MA), vortexing every 5 min during incubating. The lysate was clarified by centrifugation, and protein concentrations were tested by Pierce™ BCA Protein Assay Kit. Following separation in 15% SDS-PAGE gels, the proteins were transferred onto a PVDF membrane (ThermoFisher) by a Bio-Rad Trans-Blot SD Semi-Dry Transfer Cell under 12 V for 1 h.
(§5) Individual activity of oxidative phosphorylation complexes I, II, II IV, V94 and mitochondrial SOD2 in USC before or after treatment with ddC at three doses were assessed. The membrane was blocked for 30 min in PBS-0.1% Tween 20 (PBST) containing 5% bovine serum albumin (BSA), washed with PBST, and incubated with the primary antibodies for 2 h or 4° C. overnight, diluted by PBST containing 5% BSA. After extensive washing with PBST, the membrane was incubated in the secondary antibodies correspondingly for 1 h at room temperature. The washed membrane was treated with an Immobilon ECL Ultra Western HRP Substrate (Millipore Sigma) and analyzed with a Fujifilm LAS-3000 Luminescent Image Analyzer system.

USC in 3D USC-SFM = experiment: Cell viability/growth of 3D USC-SFM treated with ddC (CCK-8); format: cell-based, human
Experimental: as §3, with “Cell proliferation or viability was measured at different time points after USC were seeded on 2D, spheroids and 3D-SFM in 96-well plates, respectively, assessed by Cell Counting Kit-8 (CCK-8 assay, Dojindo, Japan), according to manufacturer's instructions. The absorbance at 450 nmwas measured using microplate reader (MultiSkan FC, Thermo, USA). To determine” for “To determine”

USC in 2D culture = experiment: Cell viability and growth of USC in 2D culture treated with ddC; format: cell-based, human
Experimental: Cell proliferation or viability was measured at different time points after USC were seeded on 2D, spheroids and 3D-SFM in 96-well plates, respectively, assessed by Cell Counting Kit-8 (CCK-8 assay, Dojindo, Japan), according to manufacturer's instructions. The absorbance at 450 nmwas measured using microplate reader (MultiSkan FC, Thermo, USA).

USC in 3D spheroids = experiment: mtDNA content (q-PCR) and mitochondrial mass of USC in 3D spheroids treated with ddC; format: cell-based, human
Experimental: as §3, §2

[3] = tested on: oxidative phosphorylation complexes I-V in USC of 3D USC-SFM; experiment: Oxidative phosphorylation complexes I-V in 3D USC-SFM after ddC (Western blot); format: cell-based, human
Experimental: as §1, §4, §5

[4] = Gorwood et al. 2020; cited from earlier work
microglia cells = details: George et al. 2021; cited from earlier work
CD4+ T cells = details: Korencak et al. 2019; cited from earlier work
[5] = 3D USC-SFM, six weeks after ddC (0.2, 2, and 10 μM), vs 0.1% DMSO control
[6] = 3D spheroids, six weeks after ddC (0.2, 2, and 10 µM), vs 0.1% DMSO control

Nc1ccn([C@H]2CC[C@@H](CO)O2)c(=O)n1 [ddC, Zalcitabine]
Levels of mtDNA content ([1]; 3D USC-SFM, 2 and 6 weeks, ddC 0.2, 2, or 20 μM, vs DMSO standardized as 100%): significantly decreased
Manner of decrease of mtDNA content ([1]; 3D USC-SFM, q-PCR): time-depended manner
mitochondrial mass [1, 5]: significantly decreased
mtDNA content [1, 5]: significantly decreased
mtDNA content ([1]; ddC at 2 or 20 μM compared to 0.1 μM ddC, 3D culture of USC (model not given)): significantly inhibited
expression of ETC complex I-IV ([2]; 3D organoids, ddC middle and high doses, wk 6): decrease
levels of complexes I, II and IV ([2]; 3D spheroids, low dose ddC): significantly increased
mitochondrial toxicity (decreasing levels of complexes I-IV) ([2]; spheroids): significant dose- and time-dependent
complex I level (only complex affected) ([2]; spheroids treated with ddC): declined
cell survival and growth (USC in 3D USC-SFM; 3D USC-SFM, 3 days, or 1, 2, 4, and 6 weeks): did not significantly affect
cytotoxicity (USC in 3D USC-SFM; USC in 3D cultures): mild
cell viability and growth of USC (USC in 2D culture): significantly affected
cells remaining on the dishes (USC in 2D culture; 2 weeks after ddC treatment): few cells remaining
Levels of mtDNA content (USC in 3D spheroids; 3D spheroid of USC, 2 and 6 weeks, ddC 0.2, 2, or 20 μM, vs DMSO standardized as 100%): significantly decreased
Manner of decrease of mtDNA content (USC in 3D spheroids; 3D spheroids of USC, q-PCR): dose-dependent manner
mitochondrial mass (USC in 3D spheroids; [6]): significantly decreased
mtDNA content (USC in 3D spheroids; [6]): significantly decreased
levels of complex I, and IV ([3]; 2 weeks, ddC 2 and 10 μM vs low dose (0.1 μM)): significantly decreased
mitochondrial toxicity (decreasing levels of complexes I-IV) ([3]; 3D SFM): significant dose- and time-dependent
Levels of complexes I, II, and III ([3]; 3D SFM-USC treated with ddC): significantly decreased
levels of complexes II, III and IV ([3]; 3D USC-SFM compared to complex levels in spheroids): significantly decreased
chronic MtT ([3]; 3D USC-SFM model): dose- and time-dependent chronic MtT displayed
complex I-IV levels ([3]; 3D USC-SFM, ddC 2 and 10 μM, 6 weeks compared to 2 weeks): significantly decreased
increase of levels of complexes I, II and IV ([3]; 3D USC-SFM, low dose ddC): did not occur
mitochondrial function (inhibiting oxidative phosphorylation complex I-IV) ([3]; 3D culture models): significant impairment
levels of complex I, II, III and IV ([3]; 6 weeks, middle and high dose ddC vs low dose): significantly declined
activity of complex II-IV ([3]; USC-SFM, ddC middle and high doses vs low dose, week 6): significantly decreased
expression of ETC complex I-IV ([3]; USC-SFM, ddC middle and high doses, wk 6): decrease

C[C@@H]1CCO[C@H]2Cn3cc(C(=O)NCc4ccc(F)cc4F)c(=O)c(O)c3C(=O)N12 [dolutegravir]
pro-adipogenic and pro-lipogenic effects, oxidative stress, mitochondrial dysfunction, insulin resistance [4]: display pro-adipogenic and pro-lipogenic effects, and promote oxidative stress, mitochondrial dysfunction, and insulin resistance
mitochondrial dysfunction (microglia cells): induces mitochondrial dysfunction
levels of mitochondrial ROS and mitochondrial mass (CD4+ T cells): increased

COc1cc2c(cc1Cc1cccc(Cl)c1F)c(=O)c(C(=O)O)cn2[C@H](CO)C(C)C [elvitegravir]
levels of mitochondrial ROS and mitochondrial mass (CD4+ T cells): increased
